According to patent US12180187B2, “1-phenyl-5-azinylpyrazolyl-3-oxyalkyl acids and their use for controlling unwanted plant growth” (BAYER AKTIENGESELLSCHAFT, priority 2019, dated 2024):

The compounds below were run on HORMU (assay: Pre-emergence action at 320 g/ha against HORMU). Settings: greenhouse, scored visually after about 3 weeks vs untreated controls, 100% = plants have died, 0% = like control plants.
Type: in vivo, Hordeum murinum
Text: b) Seeds of monocotyledonous and dicotyledonous weed plants and crop plants are placed in plastic or organic planting pots and covered with soil. The compounds of the invention, formulated in the form of wettable powders (WP) or as emulsion concentrates (EC), are then applied onto the surface of the covering soil as aqueous suspension or emulsion with addition of 0.5% additive at a water application rate of 600 l/ha (converted). After the treatment, the pots are placed in a greenhouse and kept under good growth conditions for the trial plants. After about 3 weeks, the effect of the preparations is scored visually in comparison with untreated controls as percentages. For example, 100% activity=the plants have died, 0% activity=like control plants. Tables 13 to 26 below show the effects of selected compounds of the general formula (I) on various harmful plants and at an application rate corresponding to 320 g/ha, which were obtained by the experimental procedure mentioned above.

Structure (SMILES)	Pre-emergence action at 320 g/ha against HORMU in % [%]
COC(=O)COc1nn(-c2ccccc2F)c(-c2cncnc2)c1Br [VI-004, Methyl {[4-bromo-1-(2-fluorophenyl)-5-(pyrimidin-5-yl)-1H-pyrazol-3-yl]oxy}acetate]	100
O=C(O)COc1nn(-c2ccccc2F)c(-c2cncnc2)c1Br [VI-007, {[4-Bromo-1-(2-fluorophenyl)-5-(pyrimidin-5-yl)-1H-pyrazol-3-yl]oxy}acetic Acid]	100
COC(=O)COc1nn(-c2ccc(F)cc2)c(-c2ccc(F)nc2)c1Br [VII-002]	80
O=C(O)COc1nn(-c2ccccc2F)c(-c2ccc(F)nc2)c1Br [VII-003, {[4-Bromo-1-(2-fluorophenyl)-5-(6-fluoropyridin-3-yl)-1H-pyrazol-3-yl]oxy}acetic acid]	90
CCOC(=O)COc1nn(-c2ccccc2F)c(-c2ccc(F)nc2)c1Br [VII-012, Ethyl {[4-bromo-1-(2-fluorophenyl)-5-(6-fluoropyridin-3-yl)-1H-pyrazol-3-yl]oxy}acetate]	80
CCOC(=O)COc1nn(-c2ccc(F)cc2F)c(-c2ccc(F)nc2)c1Cl [VII-016]	90
CCOC(=O)C(C)Oc1nn(-c2ccccc2F)c(-c2ccc(F)nc2)c1Br (centres unmarked) [VII-019]	100
COC(=O)C(C)Oc1nn(-c2ccccc2)c(-c2ccc(F)nc2)c1Cl (centres unmarked) [VII-023, Methyl 2-{[4-chloro-5-(6-fluoropyridin-3-yl)-1-phenyl-1H-pyrazol-3-yl]oxy}propanoate]	100
CCC(Oc1nn(-c2ccccc2F)c(-c2ccc(F)nc2)c1Br)C(=O)OC (centres unmarked) [VII-029]	90
COC(=O)C(C)Oc1nn(-c2ccccc2)c(-c2cccnc2)c1Cl (centres unmarked) [VII-032]	80
CCOC(=O)COc1nn(-c2ccccc2F)c(-c2ccnc(F)c2)c1Br [VIII-003, Ethyl {[4-bromo-1-(2-fluorophenyl)-5-(2-fluoropyridin-4-yl)-1H-pyrazol-3-yl]oxy}acetate]	90
